Assay results from US7208467B2, “Lipid-altering compositions for the treatment of infertility” (priority 2002, dated 2007).

Tests used:
HDL lipid uptake = HDL lipid uptake in vivo after DiI-HDL injection in estrogen-treated rats; design: species or system rat; details: DiI-HDL 800 μg protein/kg into jugular vein, 1 hour
Protocol: For analysis of HDL lipid uptake in vivo, rats were anesthetized with nembutal or metafane before injection of DiI-HDL (800 μg protein/kg) into the left jugular vein. 1 hour later the anesthetized animals were perfused with oxygenated HBSS. Frozen sections (12 μm thick) of sucrose-infiltrated tissues were prepared. Tissue sections were viewed and photographed with a Zeiss photomicroscope III with the appropriate filter package.

SR-BI = assay: Immunoblot of SR-BI expression in tissues of estrogen-treated rats; format: in vivo, rat
Protocol: Tissues of estrogen-treated rats were screened for expression of SR-BI as described above following treatment of rats with 17-α-ethylenyl estradiol (estrogen). The rats were treated for five consecutive days with subcutaneous injections of 5 mg/kg 17-α-ethylenyl estradiol in propylene glycol or with propylene glycol alone (sham-injected).

LDL receptor = assay: Immunoblot of LDL receptor expression in estrogen-treated rats; format: in vivo; details: rat, liver
[1] = Plasma total cholesterol and FPLC lipoprotein profile of PROBUCOL-fed mice; format: in vivo; details: for Reduction of plasma cholesterol levels: 0.5% PROBUCOL chow; for Average plasma total cholesterol (±SEM): 0.5% PROBUCOL-enriched chow
Protocol: (§1) • Lipoprotein analysis. Plasma, collected from Avertin anesthetized mice, was size fractionated by FPLC, and the total cholesterol in each fraction or in unfractionated plasma was determined as described previously (Rigotti, A., et al. 1997 Proc. Natl. Acad. Sci. USA. 94:12610–12615) or by using a commercial kit (Wako Chemical USA Inc., Richmond, Va., USA). For apoA-I KO mice, 500 μl of pooled plasma was used for FPLC analyses. • Animals. […] Opinl Lipidol. 11:123-131 (2000)), apoA-I KO (Kozarsky, et al., Nature 387414–417 (1997)) (C57BL/6; The Jackson Laboratory, Bar Harbor, Me., USA), and RAG-2 KO (mixed C57BL/6×129×BALB/c background; gift from Jianzhu Chen, Massachusetts Institute of Technology). Double SR-BI/apoA-I KO and SR-BI/RAG-2 KO mice were produced by (a) mating SR-BI KO males with apoA-I KO or RAG-2-KO females, (b) transferring the resulting embryos into Swiss Webster recipients, and (c) intercrossing the double heterozygous offspring.

[2] = test system: SR-BI KO and wild-type female mice; assay: Fertility of female mice mated with wild-type males; format: in vivo
Protocol: as §1
Colonies were maintained by crossing double- KO males with females heterozygous for the SR-BI null mutation and homozygous for the apoA-I or RAG-2 mutation to optimize the low yield of SR-BI homozygotes. It has been possible to obtain only a few homozygous null SR-BI KO mice on an essentially pure C57BL/6 background (backcrossed nine times to pure C57BL/6 mice). Experiments with these (n=3; 4- month matings, no litters) and additional mixed background SR-BI KO mice (n=19) confirmed the extremely low fertility of female SR-BI KO mice. PCR was used for genotyping the various mutant mouse lines. The primers for analyses were as follows: for SR-BI, the primers were as described by Rigotti, et al., Proc. Natl. Acad. Sci. USA 94:12610–12615 (1997); for apoA-I, the following set of four primers were used: 5′ -[…]-3′ (SEQ ID NO:8), 5′-[…]-3′(SEQ ID NO:9), 5′-[…]-3′ (SEQ ID NO:10), and 5′-[…]-3 (SEQ ID NO:11)′ (sequences and protocols originally from the Jackson Laboratories), or primers 5′-[…]-3″ (SEQ ID NO: 12) and 5′-[…]-3′(SEQ ID NO:13); and for RAG-2, the primers were 5′-[…]-3″(SEQ ID NO:14) and 5′-[…]-3″ (SEQ ID NO:15) (kindly provided by Charles Whitehurst, Massachusetts Institute of Technology). All animal studies were approved by the Massachusetts Institute of Technology Committee on Animal Care. To test the fertility of genetically, surgically, or pharmacologically manipulated female mice, virgin females were housed continuously with wild-type males, and numbers of litters and pups were counted during the mating period. […] Otherwise shorter 1- to 2-month mating periods were used when the fertile females produced litters relatively quickly. • Ovary transplantation. Donor SR-BI KO or control wild-type mice (5–6 weeks of age) were sacrificed by cervical dislocation, and the ovaries were removed. Hosts (RAG-2 KO mice), 4–6 weeks of age, were anesthetized with 2.5% Avertin (intraperitoneally), and ovary transfer surgery was performed. In brief, ovaries of the host mice were removed from the surrounding ovarian bursa by cutting the side opposite to the ovarian hilus. Ovaries from the donor mice were then inserted into the ovarian bursa and the bursa closed with Vetbond tissue adhesive (3M Animal Care Products, St. Paul, Minn., USA). In sham ovary transplants (n=5), ovaries of SR-BI KO mice were removed and reinserted into the same mouse (either unilaterally when the contralateral oviduct was cut, n=1, or bilaterally, n=4). […]

[3] = estrogen-treated versus control rats
[4] = rat, 5 mg/kg subcutaneous for five consecutive days, versus sham-injected
[5] = PROBUCOL-fed SR-BI KO females, n=14, 1- to 2-month mating

Molecule | DiI-HDL fluorescence in the ovaries (HDL lipid uptake) | Uptake of lipid into adrenal tissues (HDL lipid uptake) | SR-BI expressed in the liver (SR-BI; [3]) | SR-BI in the ovaries (SR-BI; [3]) | SR-BI expression in adrenal membranes (SR-BI; [4]) | SR-BI levels in tissues showing trace signal (lung, testes, skin) (SR-BI; [4]) | SR-BI expression (immunoblot compared with LDL receptor) (SR-BI; rat, estrogen-treated, liver) | LDL receptor expression (LDL receptor) | Reduction of plasma cholesterol levels ([1]; SR-BI KO mice) | Average plasma total cholesterol (±SEM) ([1]; SR-BI KO mice, n=14) | Effect on apparent sizes of the HDLs ([1]; wild-type and SR-BI KO mice, FPLC) | Reduction of plasma cholesterol levels ([1]; wild-type mice) | Average plasma total cholesterol (±SEM) ([1]; wild-type mice, n=9) | Average time from mating to delivery ([2]; PROBUCOL-fed SR-BI KO females) | Average litter size [2, 5] | Percentage of females producing litters [2, 5] | Average litter size ([2]; PROBUCOL-fed wild-type females, n=9, 1- to 2-month mating) | Restoration of fertility ([2]; SR-BI KO females, treatment began 1–3.5 weeks before mating and continued throughout)
17-α-ethylenyl estradiol [estrogen] | elevated levels | dramatically increased | significantly reduced levels | elevated levels | upregulation of SR-BI | no change in SR-BI levels | dramatically downregulated | tremendous upregulation |  |  |  |  |  |  |  |  |  | 
CC(C)(Sc1cc(C(C)(C)C)c(O)c(C(C)(C)C)c1)Sc1cc(C(C)(C)C)c(O)c(C(C)(C)C)c1 [PROBUCOL™, 4,4′-(isopropylidenedithio) bis(2,6-di-tert-butylphenol)] |  |  |  |  |  |  |  |  | approximately 49% | 107.8 ± 6.3 mg/dL | without substantially altering the apparent sizes of the HDLs | approximately 67% | 33.6 ± 3.4 mg/dL | 28.4 days | 5.7 | 93% | 5.3 | completely restored fertility
